{"source": "patent US20040241049A1", "about": "“Elastomeric tools for the fabrication of elastomeric devices and uses thereof” (priority 2003, published 2004)", "origin": "cited, not measured here"}
{"test_system": "α1-acid glycoprotein, αAGP", "details": "displacement of quinaldine red from αAGP; stated as known"}
{"compound": "CN(C)CCCN1c2ccccc2Sc2ccc(Cl)cc21", "note": "[chloropromazine]", "inhibition of QR/αAGP binding (binder / non-binder)": "known inhibitors to QR/αAGP binding"}
{"compound": "CC(C)Cc1ccc(C(C)C(=O)O)cc1", "note": "(stereo not drawn) [ibuprofen]", "inhibition of QR/αAGP binding (binder / non-binder)": "non-binder"}
{"compound": "O=C(O)c1cc(I)cc(I)c1I", "note": "[tri-idiobenzoic acid]", "inhibition of QR/αAGP binding (binder / non-binder)": "known inhibitors to QR/αAGP binding"}
